Results taken from patent US10768161B2, “Method for ecological risk assessment of heavy metal in river basin sediment based on toxicity effect” (CHINESE RESEARCH ACADEMY OF ENV[…], priority 2015, dated 2020).

Tests used:
aquatic organisms [1] = experiment: Species Sensitivity Distributions (SSD) curve fitting, toxic concentration HC5; design: Toxic concentration: unit not given here; settings: for Toxic concentration: HC5^i, protects 95% of aquatic organisms, Table 3
From the text: (5) collecting the chronic toxicity data of the i^th heavy metal on aquatic species selected in step (1), performing curve fitting on the collected data, and selecting the curve regression equation with the highest goodness of fit, so as to obtain the best equation for the sensitivity of the i^th heavy metal;
(6) drawing a fitting curve (Species Sensitivity Distributions, SSD) according to the best fitting equation obtained in step (5), and setting the y value of this equation, that is, the cumulative probability to 0.05, and then calculating the corresponding x value, which is the toxic concentration HC5^i of the i^th heavy metal that protects 95% of aquatic organisms;
Preferably, plotting the collected concentration values of toxicity data for different species of organisms against the quantiles arranged in concentration, and selecting the curve equation to fit based on the resulting data point distribution shape. The fitting should adopt several different functions and select the optimal regression curve, so as to avoid the systematic errors introduced by improper selection of functions. When the distribution of the toxicity data points is a common S-type, the fitting curves are preferred to use the log-Normal distribution function, the log-logistic distribution function, the log-triangular distribution function, or a combination thereof. When the distribution of the toxicity data points is different from the common S-type distribution, other curves or non-parametric methods can be used to fit the data points, for example, using the Burr type III distribution function as the regression curve equation of the toxicity data of heavy metals.
Preferably, the goodness of fit described in step (5) is determined by the toxicity data points and the judgment coefficient R^2 of the resulting curve regression equation: when the judgment coefficient R^2 of the curve regression equation gets closer to 1, the goodness of the curve regression equation for the data is higher.
Preferably, the concentration HC5^i of the i^th heavy metal that protects 95% of aquatic organisms described in step (6) is the toxicity data corresponding to the cumulative probability of 5% aquatic organisms on the fitted curve.

aquatic organisms [2] = experiment: Integration and normalization of release coefficient and HC5 to toxicity coefficient S^i; settings: for Toxicity coefficient: Table 4; for Square root (toxicity coefficient S^i): final step of integration and normalization, Table 3
From the text: (7) repeating steps (4) to (6) n times to obtain the release coefficient cs^i and toxic concentration HC5^i of each heavy metal determined in step (2), and integrating and normalizing the release coefficient cs^i and toxic concentration HC5^i of each heavy metal to obtain the toxicity coefficient S^i of the i^th heavy metal;
Preferably, the integrating and normalizing regulation described in step (7) comprises the following calculation steps:
a. calculating the reciprocal of the concentration HC5^i of the i^th heavy metal, and keeping three significant figures for each value obtained;
b. dividing each reciprocal number obtained in step a by the smallest one of them, and keeping three significant figures for each value obtained;
c. multiplying each value obtained in step b by the release coefficient cs^i of the corresponding i^th heavy metal;
d. dividing each value obtained in step c by the smallest one of them, and keeping three significant figures for each value obtained; […]

[3] = Ecological risk assessment of heavy metals in a lake basin sediment; settings: for Toxicity response coefficient: Tr^i=S^i*(5/BPI)^x, lake BPI=6.7; for Pollution risk index: ecological risk index Er^i=Tr^i*cf^i for the lake
From the text: (8) calculating the toxicity response coefficient Tr^i of the i^th heavy metal according to the formula Tr^i=S^i*(5/BPI)^X one by one, where BPI is the biological yield index of the water body evaluated and the value of x is 1, ½ or 0;
(9) calculating the ecological risk index Er^i of the i^th heavy metal according to the formula Er^i=Tr^i*cf^i one by one, and the resulting Er^i is used to evaluate the ecological risk of a single metal to the assessed river basin: when Er^i<30, the ecological hazard of the i^th heavy metal to the assessed river basin is slight, when 30≤Er^i<60, the ecological hazard of the i^th heavy metal to the assessed river basin is medium, when 60≤Er^i<120, the ecological hazard of the i^th heavy metal to the assessed river basin is strong, when 120≤Er^i<240, the ecological hazard of the i^th heavy metal to the assessed river basin is very strong, when Er^i>240, the ecological hazard of the i^th heavy metal to the assessed river basin is extremely strong.
Preferably, the ecological assessment method described above also includes the step (10), that is using the formula RI=Σi=1^N Er^i to calculate the total ecological risk comprehensive index RI caused by multiple heavy metal pollutants in the water body and then using RI to evaluate the ecological risk of the assessed river basin: when RI<150, there is a slight ecological hazard in the river basin, when 150≤RI<300, there is a medium ecological hazard in the river basin, when 300≤RI<600, there is a very strong ecological hazard in the river basin, when RI≥600, there is an extremely strong ecological hazard in the river basin.
Preferably, the BPI described in step (8) is the bioproduction index, which is determined by the burning amount and nitrogen content of the sediment samples. BPI indicates the sensitivity of water to heavy metal pollutions, namely the effects of Eh and pH of pore water in sediments, and pH, salinity, and alkalinity of overlying water on the various heavy metals in the water.
Preferably, the value of x described in step (8) is determined by the type of heavy metals that is measured. The toxicity response coefficient of Hg decreases with the increase of BPI, and the relationship between them is linear. Therefore, when the measured metal is Hg, the value of x is 1. The toxicity response coefficient of As is independent of BPI. Therefore, when the measured metal is As, the value of x is 0. The toxicity response coefficient of other heavy metals also decreases with the increase of BPI, but it is not linear. Therefore, when the measured metal is not Hg or As, the value of x is ½.

[4] = cited from earlier work; for Release coefficient: Table 3
Pyrrophyta = settings: chronic toxicity, Phytoplankton; cited from earlier work
Scenedesmus = settings: chronic toxicity, Phytoplankton; cited from earlier work
Cryptophyta = settings: chronic toxicity, Phytoplankton; cited from earlier work
Wild lotus = settings: chronic toxicity, Hydrophyte; cited from earlier work
Duckweed = settings: chronic toxicity, Hydrophyte; cited from earlier work
Azolla pinnata = settings: chronic toxicity, Hydrophyte; cited from earlier work
Arenaceous sanding = settings: chronic toxicity, Zooplankton; cited from earlier work
Brachionus calyciflorus = settings: chronic toxicity, Zooplankton; cited from earlier work
Bosmina = settings: chronic toxicity, Zooplankton; cited from earlier work
Protosalanx hyalocranius = settings: chronic toxicity, Fishes; cited from earlier work
Carp = settings: chronic toxicity, Fishes; cited from earlier work
Coilia nasus taihuensis = settings: chronic toxicity, Fishes; cited from earlier work
Corbicula fluminea = settings: chronic toxicity, Zoobenthos; cited from earlier work
Chironomus = settings: chronic toxicity, Zoobenthos; cited from earlier work
Bellamya aeruginosa = settings: chronic toxicity; Zoobenthos, Bellamya aeruginose; cited from earlier work

SMILES: [Zn] [Zn]
- Toxic concentration (aquatic organisms [1]): 10.83
- Toxicity coefficient (aquatic organisms [2]): 2.50
- Square root (toxicity coefficient S^i) (aquatic organisms [2]): 2.5
- Toxicity response coefficient [3]: 2.16
- Pollution risk index [3]: 2.66
- Release coefficient [4]: 57

SMILES: [Cr] [Cr]
- Toxic concentration (aquatic organisms [1]): 2.42
- toxic concentration HC5^i that protects 95% of aquatic organisms (aquatic organisms [1]; cumulative probability 0.05 on log-logistic SSD fit of chronic toxicity data): 2.42 µg/L
- Toxicity coefficient (aquatic organisms [2]): 1.00
- Square root (toxicity coefficient S^i) (aquatic organisms [2]): 1
- Toxicity response coefficient [3]: 0.86
- Pollution risk index [3]: 0.68
- Toxicity data (NOEC) (Pyrrophyta): 671 µg/kg
- Toxicity data (NOEC) (Scenedesmus): 8 µg/kg
- Toxicity data (NOEC) (Cryptophyta): 317 µg/kg
- Toxicity data (NOEC) (Wild lotus): 123 µg/kg
- Toxicity data (NOEC) (Duckweed): 1000 µg/kg
- Toxicity data (NOEC) (Azolla pinnata): 625 µg/kg
- Toxicity data (NOEC) (Arenaceous sanding): 1500 µg/kg
- Toxicity data (NOEC) (Brachionus calyciflorus): 1789 µg/kg
- Toxicity data (NOEC) (Bosmina): 46.5 µg/kg
- Toxicity data (NOEC) (Protosalanx hyalocranius): 4405 µg/kg
- Toxicity data (NOEC) (Carp): 23516 µg/kg
- Toxicity data (NOEC) (Coilia nasus taihuensis): 6941 µg/kg
- Toxicity data (NOEC) (Corbicula fluminea): 1.13 µg/kg
- Toxicity data (NOEC) (Chironomus): 20 µg/kg
- Toxicity data (NOEC) (Bellamya aeruginosa): 250 µg/kg
- Release coefficient [4]: 2
- release coefficient cs^1 ([4]; from the literature): 2×10^−3

SMILES: [Cd] [Cd]
- Toxic concentration (aquatic organisms [1]): 0.3
- Toxicity coefficient (aquatic organisms [2]): 28.00
- Square root (toxicity coefficient S^i) (aquatic organisms [2]): 28
- Toxicity response coefficient [3]: 24.19
- Pollution risk index [3]: 18.38
- Release coefficient [4]: 200

SMILES: [Cu] [Cu]
- Toxic concentration (aquatic organisms [1]): 0.89
- Toxicity coefficient (aquatic organisms [2]): 17.00
- Square root (toxicity coefficient S^i) (aquatic organisms [2]): 17
- Toxicity response coefficient [3]: 14.69
- Pollution risk index [3]: 26.73
- Release coefficient [4]: 200

SMILES: [As] [As]
- Toxic concentration (aquatic organisms [1]): 14.9
- Toxicity coefficient (aquatic organisms [2]): 1.50
- Square root (toxicity coefficient S^i) (aquatic organisms [2]): 1.5
- Toxicity response coefficient [3]: 1.50
- Pollution risk index [3]: 1.05
- Release coefficient [4]: 27

SMILES: [Hg] [Hg]
- Toxic concentration (aquatic organisms [1]): 0.53
- Toxicity coefficient (aquatic organisms [2]): 27.00
- Square root (toxicity coefficient S^i) (aquatic organisms [2]): 27
- Toxicity response coefficient [3]: 20.15
- ecological hazard to the lake ([3]; class by Er^i of single metal): medium (when 30≤Er^i<60, the ecological hazard of the i^th heavy metal to the assessed river basin is medium)
- Pollution risk index [3]: 54.40
- Release coefficient [4]: 320

SMILES: [Pb] [Pb]
- Release coefficient [4]: 71

SMILES: [Ni] [Ni]
- Toxic concentration (aquatic organisms [1]): 6.03
- Toxicity coefficient (aquatic organisms [2]): 5.50
- Square root (toxicity coefficient S^i) (aquatic organisms [2]): 5.5
- Toxicity response coefficient [3]: 4.75
- Pollution risk index [3]: 3.85
- Release coefficient [4]: 147
